Values joined by “and” are separate entries in the source; they are usually repeats but may differ in a detail not shown here. Equal entries are not always repeated.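 Exposure lasted 48 hours, with cells grown in 96-well plates and compounds tested at five concentrations. GI50: concentration for 50% inhibition of growth.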 Active and inactive are the calls of the source. No stated cut-off is given here; in the data, active = GI50 up to about 1.1 µM and inactive = higher.
What was measured:
Test in all cases: NCI anticancer screen, dose series, 48 h
A549 = system: A549
ACHN = system: ACHN
CAKI-1 = system: CAKI-1
COLO 205 = system: COLO 205
DLD-1 = system: DLD-1
HCT-116 = system: HCT-116
IGROV-1 = system: IGROV-1
KM12 = system: KM12
Malme-3M = system: Malme-3M
NCI-H522 = system: NCI-H522
RXF 393 = system: RXF 393
SN12C = system: SN12C
SNB-19 = system: SNB-19
SW-620 = system: SW-620
UACC-257 = system: UACC-257
LOX IMVI = system: LOX IMVI
DU-145 = system: DU-145
Hs-578T = system: Hs-578T
MDA-MB-231 = system: MDA-MB-231
SR = system: SR

Measured: GI50

O/N=C1/C(=C/c2ccc(Cl)cc2)CCCC1C(NO)c1ccc(Cl)cc1 (configuration not stated)
inactive: A549 20.3 µM | ACHN 31.5 µM | CAKI-1 23.7 µM | COLO 205 20.7 µM | DLD-1 26.5 µM | HCT-116 23.9 µM | IGROV-1 38.2 µM | KM12 19.9 µM | Malme-3M 26.7 µM | NCI-H522 20.3 µM | RXF 393 12 µM | SN12C 19.3 µM | SNB-19 24.2 µM | SW-620 30.2 µM | UACC-257 17.2 µM

CC(C)=CCSC1CC2C(CC1(C)O)C2(C)C (configuration not stated)
inactive: A549 11.6 µM and 16.6 µM | ACHN 17.2 µM and 17.5 µM | CAKI-1 14.6 µM and 12.5 µM | COLO 205 17.1 µM and 18.5 µM | DLD-1 17.3 µM and 13.8 µM | HCT-116 15.3 µM and 17.1 µM | IGROV-1 19 µM and 16.9 µM | KM12 19.3 µM and 14.1 µM | LOX IMVI 16.2 µM and 15.1 µM | Malme-3M 17.3 µM and 16.4 µM | SN12C 17 µM and 15.6 µM | SNB-19 17.2 µM and 19.3 µM | SW-620 19.6 µM and 17.1 µM

O=C1C(Cl)=CC2(C=C1Cl)CCNC1=C2C(=O)c2nc[nH]c2C1=O
inactive: A549 > 100 µM | ACHN > 100 µM | CAKI-1 64.4 µM | COLO 205 22.9 µM | DU-145 > 100 µM | HCT-116 26 µM | Hs-578T > 100 µM | IGROV-1 47.1 µM | KM12 43.4 µM | LOX IMVI 20 µM | MDA-MB-231 35.6 µM | Malme-3M 24.3 µM | NCI-H522 21.1 µM | RXF 393 23.2 µM | SN12C 36.5 µM | SNB-19 32.3 µM | SR 2.12 µM | SW-620 26.9 µM | UACC-257 18.6 µM

O=c1[nH]nc(Cc2ccc(Cl)cc2)n1O
inactive: A549 > 100 µM | ACHN > 100 µM | CAKI-1 > 100 µM | COLO 205 > 100 µM | DU-145 > 100 µM | HCT-116 > 100 µM | Hs-578T > 100 µM | IGROV-1 > 100 µM | KM12 > 100 µM | LOX IMVI > 100 µM | MDA-MB-231 > 100 µM | Malme-3M > 100 µM | NCI-H522 > 100 µM | RXF 393 > 100 µM | SN12C > 100 µM | SNB-19 > 100 µM | SR > 100 µM | SW-620 > 100 µM | UACC-257 > 100 µM

O=c1c2ncn(C3CCCCO3)c2n(-c2ccccc2)c(=S)n1-c1ccccc1 (configuration not stated)
inactive: A549 78 µM | ACHN 45.1 µM | CAKI-1 42.4 µM | COLO 205 > 71.4 µM | DU-145 > 71.3 µM | HCT-116 45.5 µM | Hs-578T 10.1 µM | IGROV-1 28.6 µM | KM12 > 76.4 µM | LOX IMVI 56.5 µM | MDA-MB-231 26.2 µM | Malme-3M > 41.5 µM | NCI-H522 39.6 µM | RXF 393 7.8 µM | SN12C 56.6 µM | SNB-19 21.5 µM | SR > 4.65 µM | SW-620 > 65.9 µM | UACC-257 61.9 µM

CC1(CF)SCc2nc3ccccc3n21 (configuration not stated)
inactive: A549 > 100 µM | ACHN > 100 µM | CAKI-1 > 100 µM | COLO 205 > 100 µM | DU-145 > 100 µM | HCT-116 > 100 µM | Hs-578T > 100 µM | IGROV-1 > 100 µM | KM12 > 100 µM | LOX IMVI > 100 µM | MDA-MB-231 > 100 µM | Malme-3M > 100 µM | NCI-H522 > 100 µM | RXF 393 > 100 µM | SN12C > 100 µM | SNB-19 > 100 µM | SR > 100 µM | SW-620 > 100 µM | UACC-257 > 100 µM

Cc1ccc(S[C@@H](C)[C@@](O)(C(N)=O)c2ccccc2)cc1
inactive: A549 42.1 µM | ACHN 68.5 µM | CAKI-1 16.6 µM | COLO 205 34.4 µM | DU-145 72.9 µM | HCT-116 35.2 µM | Hs-578T > 100 µM | IGROV-1 3.74 µM | KM12 40.8 µM | LOX IMVI 14.7 µM | MDA-MB-231 19.2 µM | Malme-3M 21 µM | NCI-H522 16.7 µM | RXF 393 86.1 µM | SN12C > 100 µM | SNB-19 > 100 µM | SR > 10 µM | SW-620 39 µM | UACC-257 13 µM

OCC1C(/C=C/c2ccoc2)ON2CCCC12 (configuration not stated)
inactive: A549 > 100 µM | ACHN > 100 µM | CAKI-1 > 100 µM | COLO 205 > 100 µM | DLD-1 > 100 µM | KM12 > 100 µM | LOX IMVI > 100 µM | Malme-3M 20.8 µM | NCI-H522 > 100 µM | RXF 393 > 100 µM | SN12C > 100 µM | SNB-19 > 100 µM | SW-620 > 100 µM | UACC-257 > 100 µM
